Experimental data published in patent publication US20250269039A1, “THERAPEUTIC-OLIGONUCLEOTIDES ACTIVATED BY NUCLEASES” (priority 2020, published 2025).
In brackets after ≈: the same amount, converted by molar mass. Like-named read-outs stand apart in the source and are kept apart here.

Legend:
P. aeruginosa ATCC 10145 = assay: Broth microdilution MIC and growth inhibition (control bacteria); format: cell-based; details: for MIC: TOUCAN as NA equivalent
Description: (§1) Bacteria strains. S. aureus NCTC 12493 (MRSA), S. aureus ATCC 29213 (MSSA), S. aureus ATCC 43300 (MRSA), S. aureus ATCC 1707 (MRSA), S. aureus ATCC 1717 (MRSA), S. aureus ATCC 1747 (MRSA), S. aureus ATCC 1761 (MRSA), S. aureus ATCC 1766 (MRSA), S. aureus ATCC 1768 (MRSA), S. epidermidis ATCC 35984, E. coli ATCC 25922, K. pneumoniae ATCC 13883, P. mirabilis ATCC 25933, S. enterica ATCC 14028 and P. aeruginosa ATCC 10145 strains were used in this study. Bacteria were initially inoculated onto tryptone soy agar with 5% defibrinated sheep blood (Thermo Fisher Scientific, Inc., Waltham, MA, USA) and incubated at 37° C. for 24 hours. Then, single colonies of each strain were transferred to tryptone soy broth (Thermo Fisher Scientific) for the nuclease activity assay or antimicrobial susceptibility testing, respectively.
(§2) Antimicrobial susceptibility testing. Minimal inhibitory concentrations (MIC) of all nucleoside analogues and TOUCANs against each bacteria strain were determined using broth microdilution method. A single colony obtained from overnight culture on tryptone soy agar with 5% defibrinated sheep blood was inoculated in cation-adjusted Mueller Hinton Broth and adjusted to 10^6 CFU/mL. TOUCANs were prepared in PBS+/+ (treatment) and serial dilutions were made in 96-well polystyrene round bottom microwell plates with 50 μL final volume for each concentration. PBS+/+ was used as untreated control. Next, 50 μL bacteria solutions were added to each well to a final bacteria concentration of 5×10^5 CFU/mL. Plates were incubated at 37° C. in Cytation 1 Cell Imaging Multimode Reader. Growth curves were obtained by measuring optical densities at 600 nm every 10 minutes for 18 hours using Cytation 1 Cell Imaging Multimode Reader. In addition, visual inspection of the plates was carried out after 18 hours and photographs were taken. MICs were defined as the lowest drug concentration in the microwell at which bacterial growth was not visible at the end of the incubation period. Besides MIC determination, specificity of TOUCAN 7mGe was also shown with subcultures on chromogenic media. For this purpose, 5 μL of different concentrations of each strain were inoculated onto CHROM agar Orientation Media (Becton Dickinson) and the bacterial growth of each bacteria strain tested was observed by naked eye after incubation at 37° C. for 24 hours. Finally, photographs of the chromogenic media were taken.

K. pneumoniae ATCC 13883 = assay: as above; format: cell-based; details: for MIC: TOUCAN as NA equivalent
Description: as §1, §2

S. enterica ATCC 14028 = assay: as above; format: cell-based; details: for MIC: TOUCAN as NA equivalent
Description: as §1, §2

[1] = system: S. aureus ATCC 29213 (MSSA); assay: Broth microdilution MIC and growth inhibition; format: cell-based, Staphylococcus aureus
Description: as §1, §2

[2] = system: S. aureus ATCC 1768 (MRSA); assay: Broth microdilution MIC and growth inhibition; format: cell-based, Staphylococcus aureus; details: for MIC: 18 h, TOUCAN as NA equivalent
Description: as §1, §2

E. coli ATCC 25922 = assay: Broth microdilution MIC and growth inhibition (control bacteria); format: cell-based, Escherichia coli; details: for MIC: TOUCAN as NA equivalent
Description: as §1, §2

S. aureus ATCC1766 = assay: Mouse thigh muscle infection model: gross pictures, histopathology, bacteria counts; format: in vivo, mice; details: for histopathological analysis of infected leg / visible bacterial infection of infected leg (gross photographs): mice, i.v.; for histopathological analysis of infected leg: 20 mg/kg/24 hour Floxuridine equivalent, FIG. 7d-g; for visible bacterial infection of infected leg (gross photographs): four doses equivalent to 5 mg/kg Floxuridine over 24 hours, FIG. 7a-c
Procedure: In vivo assessment of the therapeutic efficacy of TOUCANs in a mouse infection model. All animal experiments described in this study were conducted at the Linköping University Center for Biomedical Resources and were approved by the Swedish Ethical Board “Jordbruksverket” under the animal protocol 1253. All experiments were conducted according to the principles expressed in the Declaration of Helsinki. Six-weeks old female […] mice were divided into three different groups: Placebo (saline solution), Floxuridine alone and TOUCAN 7mFx, with 8 mice per group. First, to induce the infection, S. aureus ATCC1766 strain was cultured on tryptone soy agar with 5% defibrinated sheep blood, and single colonies were transferred to 25 mL tryptone soy broth and incubated at 37° C. for 12 hours with 200 rpm shaking. Next, bacteria solution was diluted 1/100 using PBS+/+ (˜10^7 CFU/mL) and 50 μL (˜5×10^5 CFU) were injected into the right thigh muscles of all mice under sterile conditions and 2% isoflurane anesthesia. This method was optimized based on our previous animal infection model.^16 In this model, the left uninfected leg was used as control for each animal. This model induces reproducible infections after 24 hours. Next, the therapeutic regime was adapted from a previous study that validated the efficacy of several antibiotics against S. aureus.^28 We have treated the mice for 24 hours with four doses of TOUCAN 7mFx equivalent to 5 mg/kg of Floxuridine in 100 μL of PBS−/−, administered intravenously by tail vein injections. The first dose was administered after 2 hours post-inoculation, followed by 3 additional injections at the same concentration every 6 hours. In total, each animal was given TOUCAN 7mFx equivalent to 20 mg/kg/24 hour of Floxuridine. In this study, two additional groups, Placebo and Floxuridine alone, were also tested in infected animals. In the Placebo group, mice were injected with a saline solution (PBS), and in the Floxuridine group, mice were injected with 20 mg/kg/24 hours of Floxuridine under the same conditions indicated for TOUCAN 7mFx. After 24 hours, blood samples were collected, and mice were euthanized. For a thorough blood analysis, we have included an additional group of uninfected/untreated mice as control. Next, gross pictures of both legs were taken and samples for histopathological and bacteriological analyses were collected. At least four mice per group per analysis were used in this study.
Gross pictures. Once the mice were euthanized, the skin from legs and dorsal part was removed very carefully to allow observation of the bacterial infection and the associated tissue damage. Next, photographs were taken to document the localized infection for each animal.
Histopathological analysis. To evaluate the histopathological features of infected and uninfected tissues, the thigh muscles of the animals were dissected. Subsequently, tissues were transferred to 4% buffered formaldehyde solution and stored at 4° C. for 24 hours. Then, tissues were removed from the formaldehyde solution and transferred into 50% ethanol for 15 minutes followed by 70% ethanol until processed. Next, tissues were fixed, dehydrated and wax infiltrated using a Leica TP1020 system for 7 hours. Subsequently, tissues were embedded in paraffin using a Leica EG 1150 system. The sections slides were prepared using an Automatic Rotary Microtome HM355S system and finally, samples were stained with Hematoxylin-Eosin (H&E) using an Automatic Leica ST4020 Linear Stainer. The slides were imaged using an Olympus BX51 light microscope.
Bacteria counts. To measure viable bacteria in mice, infected and uninfected tissues from both legs were collected, transferred to individual 1.5 mL vials and weighted on a microbalance. Each sample was homogenized in 1 mL of PBS using Fisherbrand Bead Mill 4 automatic homogenizer (Fisher Scientific). The homogenized solutions were serially diluted to 1:100, 1:1.000, 1:10.000 and 1:100.000. […]

[3] = infected leg, CFU/g, after 24 hours, FIG. 7h

Molecule: mU-mU-mU-mU-T-T-Fx [TOUCAN 7mFx]
- MIC (P. aeruginosa ATCC 10145; 18 h): >40 µg/mL
- TOUCAN % Growth inhibition (P. aeruginosa ATCC 10145; mean ± SD, n = 3): 7.2 ± 1.4%
- MIC (K. pneumoniae ATCC 13883; 18 h): >40 µg/mL
- TOUCAN % Growth inhibition (K. pneumoniae ATCC 13883; mean ± SD, n = 3): 0 ± 0.00%
- MIC (S. enterica ATCC 14028; 18 h): >40 µg/mL
- TOUCAN % Growth inhibition (S. enterica ATCC 14028; mean ± SD, n = 3): 10.8 ± 2.1%
- TOUCAN MIC/NA MIC TOUCAN Efficacy Ratio (TER) ([1]; S. aureus ATCC 29213 (MSSA)): 250
- MIC ([1]; S. aureus ATCC 29213 (MSSA), 18 h, TOUCAN as NA equivalent): 20 µg/mL
- TOUCAN % Growth inhibition ([1]; S. aureus ATCC 29213 (MSSA), mean ± SD, n = 3): 92.3 ± 0.09%
- TOUCAN MIC/NA MIC TOUCAN Efficacy Ratio (TER) [2]: 62.5
- MIC [2]: 2.5 µg/mL
- TOUCAN % Growth inhibition ([2]; mean ± SD, n = 3): 93.2 ± 0.3%
- MIC (E. coli ATCC 25922; 18 h): >40 µg/mL
- TOUCAN % Growth inhibition (E. coli ATCC 25922; mean ± SD, n = 3): 0 ± 0.00%
- times less bacteria recovered compared to Floxuridine group (S. aureus ATCC1766; [3]): 2949 times
- times less bacteria recovered compared to Placebo group (S. aureus ATCC1766; [3]): 642 times
- histopathological analysis of infected leg (S. aureus ATCC1766): minimal inflammation with residual neutrophil infiltration
- visible bacterial infection of infected leg (gross photographs) (S. aureus ATCC1766): do not show any visible signs of bacterial infection

Molecule: O=c1[nH]c(=O)n([C@H]2C[C@H](O)[C@@H](CO)O2)cc1F [Floxuridine, reference compound]
- MIC (P. aeruginosa ATCC 10145; Pseudomonas aeruginosa, ATCC10145, 18 h, read-out: MIC): > 40 µg/mL
- MIC (K. pneumoniae ATCC 13883; Klebsiella pneumoniae, ATCC13883, 18 h, read-out: MIC): 20 µg/mL
- MIC (S. enterica ATCC 14028; Salmonella enterica, ATCC14028, 18 h, read-out: MIC): 20 µg/mL
- MIC ([1]; Staphylococcus aureus, S. aureus ATCC 29213 (MSSA), 18 h, TOUCAN as NA equivalent, read-out: MIC): 0.08 µg/mL
- MIC ([1]; Staphylococcus aureus, Table 1, S. aureus ATCC 29213, read-out: MIC): 0.08 µg/mL (≈ 0.325 µM)
- % Growth inhibition ([1]; Table 1, S. aureus ATCC 29213, mean ± SD, n = 3): 93.1 ± 0.3%
- MIC ([2]; Staphylococcus aureus, read-out: MIC): 0.04 µg/mL
- MIC (E. coli ATCC 25922; Escherichia coli, ATCC25922, 18 h, read-out: MIC): 20 µg/mL
- bacteria count of infected leg (S. aureus ATCC1766; infected leg, after 24 hours, FIG. 7h): high bacteria count
- histopathological analysis of infected leg (S. aureus ATCC1766): clear evidence of bacterial infection, inflammation, and neutrophil infiltration
- visible bacterial infection of infected leg (gross photographs) (S. aureus ATCC1766): slightly stronger infection
